Measurements: ChEMBL document CHEMBL2321807, “Synthesis and in vitro biological evaluation of lipophilic cation conjugated photosensitizers for targeting mitochondria” (Bioorg Med Chem, 2013)
Activity calls are given as the source filed them. The rule behind the calls is not given here.

Experiments:
Colon 26 [1] = experiment: Dark toxicity against mouse Colon 26 cells up to 5 uM after 24 hrs by MTT assay; format: functional, cell-based
Colon 26 [2] = experiment: Phototoxicity against mouse Colon 26 cells up to 5 uM incubated for 24 hrs prior to irradiation measured after 30 mins by MTT assay; format: functional
Colon 26 [3] = experiment: Drug uptake in mouse Colon 26 cells at 5 to 10 uM after 24 hrs by fluorimetric analysis; format: ADME, cell-based; conditions: colon 26, 24 h
[4] = Drug uptake in human MCF7 cells mitochondria at 5 uM after 14 hrs by Rh-123-based dual fluorescence staining method; format: ADME, cell-based; conditions: mcf7, 14 h
Colon 26 [5] = experiment: Drug uptake in mouse Colon 26 cells at 10 uM after 24 hrs by fluorimetric analysis relative to CMP-OH; format: ADME, cell-based; conditions: colon 26, 24 h
[6] = n-octanol-water distribution coefficient, log D of the compound at pH 7.4 by shake flask method; format: physicochemical
Colon 26 [7] = experiment: Drug uptake in mouse Colon 26 cells at 5 uM after 24 hrs by fluorimetric analysis relative to CMP-OH; format: ADME, cell-based; conditions: colon 26, 24 h
Colon 26 [8] = experiment: Phototoxicity against mouse Colon 26 cells incubated for 24 hrs prior to irradiation measured after 30 mins by MTT assay; format: functional, cell-based; conditions: Colon 26, light or radiation study
Colon 26 [9] = experiment: Drug uptake in mouse Colon 26 cells assessed per cell at 5 uM after 24 hrs by fluorimetric analysis; format: ADME, cell-based; conditions: colon 26, 24 h
[10] = Drug uptake in human MCF7 cells cytoplasm at 5 uM after 14 hrs by Rh-123-based dual fluorescence staining method; format: ADME, cell-based; conditions: mcf7, 14 h

SMILES | Activity (Colon 26 [1]) | Activity (Colon 26 [2]) | Drug uptake (Colon 26 [3]) | Drug uptake [4] | fold change (FC) (Colon 26 [5]) | logD [6] | fold change (FC) (Colon 26 [7]) | IC50 (Colon 26 [8]) | Drug uptake (Colon 26 [9]) | Drug uptake [10]
C1=Cc2nc1c(-c1ccccc1)c1nc(c(-c3ccccc3)c3ccc([nH]3)c(-c3ccccc3)c3ccc([nH]3)c2-c2ccccc2)C=C1 | inactive |  |  |  |  |  |  |  |  | 
CCN(CC)c1ccc2c(-c3ccccc3C(C)=O)c3ccc(=[N+](CC)CC)cc-3oc2c1 | inactive | inactive |  |  |  |  |  |  |  | 
C1=Cc2nc1c(-c1ccccc1)c1ccc(s1)c(-c1ccccc1)c1nc(c(-c3ccc(OCCC[P+](c4ccccc4)(c4ccccc4)c4ccccc4)cc3)c3ccc(s3)c2-c2ccc(OCCC[P+](c3ccccc3)(c3ccccc3)c3ccccc3)cc2)C=C1.[Br-].[Br-] | inactive | >70% | Active | Active | 7 | 1.79 | 8.3 | 1.67 µM |  | 
Oc1ccc(-c2c3nc(c(-c4ccccc4)c4ccc(s4)c(-c4ccccc4)c4nc(c(-c5ccccc5)c5ccc2s5)C=C4)C=C3)cc1 | inactive | inactive |  |  |  | 2.3 |  |  | 0.19 fmol | 
CCN(CC)c1ccc2c(-c3ccccc3C(=O)OCCCOc3ccc(-c4c5nc(c(-c6ccccc6)c6ccc(s6)c(-c6ccccc6)c6nc(c(-c7ccccc7)c7ccc4s7)C=C6)C=C5)cc3)c3ccc(=[N+](CC)CC)cc-3oc2c1.[Cl-] | inactive | >70% | Active | Active | 7 | 2.01 | 10.6 | 2.36 µM |  | Active
CCN(CC)c1ccc2c(-c3ccccc3C(=O)O)c3ccc(=[N+](CC)CC)cc-3oc2c1 [RHODAMINE B] |  |  |  |  |  | 2.07 |  |  |  | 
C1=Cc2nc1c(-c1ccccc1)c1ccc(s1)c(-c1ccccc1)c1nc(c(-c3ccc(OCCC[P+](c4ccccc4)(c4ccccc4)c4ccccc4)cc3)c3ccc(s3)c2-c2ccccc2)C=C1.[Br-] | inactive | >70% | Active | Not Active | 14 | 2.04 | 18.9 | 0.9 µM |  | 
